In ChEMBL document CHEMBL1201862, “PubChem BioAssay data set” (2004):
The source made the active and inactive calls. Cut-off read from the data, not from the text of the source: actives have a measured IC50 and inactives only a lower limit.

Target: Envelope glycoprotein gp160 (Human immunodeficiency virus 1, UniProt Q6QLK5)
Assay: inhibitors of HIV fusion peptide binding, primary screen, biochemical, uHTS, fluorescence dequenching (AID 1986)

Envelope glycoprotein gp160, sequence (Q6QLK5 whole entry, the tested form may be a part): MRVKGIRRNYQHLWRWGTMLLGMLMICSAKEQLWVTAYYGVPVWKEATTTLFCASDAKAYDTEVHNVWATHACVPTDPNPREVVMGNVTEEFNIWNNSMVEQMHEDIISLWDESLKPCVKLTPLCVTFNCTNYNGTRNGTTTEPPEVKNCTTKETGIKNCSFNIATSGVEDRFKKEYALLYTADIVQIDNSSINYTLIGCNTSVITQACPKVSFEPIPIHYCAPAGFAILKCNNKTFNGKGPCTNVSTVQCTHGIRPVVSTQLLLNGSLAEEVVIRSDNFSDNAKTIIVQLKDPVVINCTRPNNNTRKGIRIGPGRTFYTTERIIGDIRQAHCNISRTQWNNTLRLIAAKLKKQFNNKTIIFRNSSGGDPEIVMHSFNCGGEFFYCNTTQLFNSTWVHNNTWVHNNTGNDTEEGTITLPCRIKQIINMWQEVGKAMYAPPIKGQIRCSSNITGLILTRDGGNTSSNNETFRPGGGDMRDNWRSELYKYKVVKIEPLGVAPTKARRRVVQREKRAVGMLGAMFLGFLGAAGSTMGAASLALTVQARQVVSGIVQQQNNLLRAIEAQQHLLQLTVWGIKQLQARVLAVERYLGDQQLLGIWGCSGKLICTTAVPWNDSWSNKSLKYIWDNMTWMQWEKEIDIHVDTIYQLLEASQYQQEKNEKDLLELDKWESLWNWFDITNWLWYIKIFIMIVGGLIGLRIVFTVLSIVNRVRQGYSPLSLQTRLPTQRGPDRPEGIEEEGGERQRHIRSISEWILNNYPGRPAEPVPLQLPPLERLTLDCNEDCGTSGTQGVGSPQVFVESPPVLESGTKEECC

COc1cccc(-c2coc3c(C)c4oc(=O)c(CCC(=O)O)c(C)c4cc23)c1
IC50: 22.7 µM (active)

COc1cc(NS(=O)(=O)c2ccc(Nc3nc(-c4ccccc4)cs3)cc2)nc(OC)n1
IC50: 20.4 µM (active)
